# System: ACE pathway
# Test: Clinical evaluation of ethanol solutions (with neutral red dye and UV illumination) by the parent of an autistic child
# Format: in vivo
# Conditions: standardized protocol
structure (smiles),measurement,value
"CCO [unprocessed ethanol, ethanol]",clinical response of the child with autism as judged by the parent,still effective

# From patent publication US20120225132A1, “Methods for Increasing the Kinetic Activity of Alcohol, Water and Other Liquids, so as to Render the Liquids More Capable of Enhancing the Alternative Cellular Energy Pathway in the Prevention and Therapy of Diseases” (priority 2011, published 2012)
